Test results from patent US12729377B2, “RNAi agents and compositions for inhibiting expression of angiopoietin-like 3 (ANGPTL3), and methods of use” (Arrowhead Pharmaceuticals, Inc., priority 2017, dated 2026).
Several values for one entry are separate records, joined by “and”; a condition that tells them apart may be missing. Equal values may be shown once. In the oligonucleotide strings, read from the 5' end, every base follows the letter of its sugar. An asterisk marks phosphorothioate; unmarked linkages are phosphodiester. Other units and linkages are bracketed, terminal groups are in braces. A string of capitals states the bases alone. {NAG37} = tridentate N-acetyl-galactosamine targeting ligand, structure (NAG37)s; [invAb] = inverted abasic unit; m = 2'-O-methyl; f = 2'-fluoro

Key:
ANGPTL3 gene [1] = assay: Example 8: serum total cholesterol in cynomolgus monkeys; format: in vivo, cynomolgus macaque (Macaca fascicularis); settings: 3.0 mg/kg single SC injection day 1, cynos, n=2
Protocol: (§1) Additional ANGPTL3 RNAi agents were evaluated in cynomolgus monkeys. On day 1, cynomolgus macaque (Macaca fascicularis) primates (also referred to herein as “cynos”) were administered a single subcutaneous injection of 0.3 mL/kg (approximately 1-2 mL volume, depending on animal mass) containing 3.0 mg/kg of one of ANGPTL3 RNAi agent AD05577, AD05307, AD05488, AD05654, or AD05659, each formulated in saline.
(§2) Two (2) cynos in each group were tested (n=2). Blood samples were drawn and serum samples were analyzed on days −8 (pre-dose), 1 (pre-dose), 8, 15, 22, 29, and 36. Cynos were fasted overnight prior to each collection. ANGPTL3 protein levels in serum were measured by ELISA assay (R&D Systems), according to the manufacturer's recommendations. Triglycerides, total cholesterol, high-density lipoprotein (HDL), and low-density lipoprotein (LDL) in serum were measured on a Cobas® Integra 400 (Roche Diagnostics), according to the manufacturer's recommendations.
(§3) The ANGPTL3 protein levels, triglyceride levels, total cholesterol levels, HDL levels, and LDL levels for each animal were normalized. For normalization, the level of ANGPTL3 protein, triglyceride, HDL, and total cholesterol, respectively, for each animal at a time point, was divided by the average pre-treatment level of expression in that animal (in this case at days −8, and 1 (pre-dose)) to determine the ratio of expression “normalized to pre-treatment.”

ANGPTL3 gene [2] = assay: Example 8: serum LDL in cynomolgus monkeys; format: in vivo, cynomolgus macaque (Macaca fascicularis); settings: 3.0 mg/kg single SC injection day 1, cynos, n=2
Protocol: as §1, §2, §3

ANGPTL3 protein [3] = assay: Example 2: serum ANGPTL3 protein by ELISA in mice; format: in vivo, C57bl/6 mice; settings: for Avg ANGPTL3 (Average ANGPTL3 Protein Normalized to Pre-Treatment and Control): 3.0 mg/kg single subcutaneous dose on day 1, serum, female C57bl/6 mice
Protocol: (§4) To assess the in vivo activity of ANGPTL3 RNAi agents that are designed to target different positions on the ANGPTL3 gene, six- to eight-week-old female C57bl/6 mice were used. Pre-dose serum samples were taken at day −1 after a four hour fast. At day 1, each mouse was given a single subcutaneous administration of 200 μl containing either 3 mg/kg (mpk) of an ANGPTL3 RNAi agent in D5W (dextrose in 5% water), or control (D5W) with no RNAi agent, according to the dosing groups recited in Table 7.
(§5) Each of the RNAi agents included a modified sequence and an N-acetyl-galactosamine-containing targeting ligand conjugated to the 5′ terminal end of the sense strand. (See Tables 3, 4, and 5 for modified sequences and targeting ligand structures). The injections were performed between the skin and muscle (i.e. subcutaneous injections) into the loose skin over the neck and shoulder area. Three (3) mice in each group were tested (n=3). Serum was collected on days 8, […], 22, 29, and day 36 (for Groups 1 and 5-11 only). Mice were fasted for four hours prior to each collection. ANGPTL3 protein levels in serum were measured by ELISA assay (R&D Systems), according to the manufacturer's recommendations. Triglycerides, high-density lipoprotein (HDL), and total cholesterol in serum were measured on a Cobas® Integra 400 (Roche Diagnostics), according to the manufacturer's recommendations.
(§6) The ANGPTL3 protein levels, triglyceride levels, HDL levels, and total cholesterol levels for each animal were normalized. For normalization, the level of ANGPTL3 protein, triglyceride, HDL, and total cholesterol, respectively, for each animal at a time point, was divided by the pre-treatment level of expression in that animal (in this case at day −1) to determine the ratio of expression “normalized to pre-treatment.” Expression at a specific time point was then normalized to the D5W control group by dividing the “normalized to pre-treatment” ratio for an individual animal by the mean “normalized to pretreatment” ratio of all mice in the D5W control group.

ANGPTL3 gene [4] = assay: Example 2: serum triglycerides in mice; format: in vivo
Protocol: as §4, §5, §6

ANGPTL3 gene [5] = assay: Example 2: serum HDL in mice; format: in vivo
Protocol: as §4, §5, §6

ANGPTL3 protein [6] = assay: Example 5: serum ANGPTL3 protein by ELISA in cynomolgus monkeys; format: in vivo, cynomolgus macaque (Macaca fascicularis); settings: for Avg ANGPTL3 protein normalized to pre-treatment, individual animal / Avg ANGPTL3 protein normalized to pre-treatment, by group: 3.0 mg/kg single SC injection on day 1, serum; for Avg ANGPTL3 protein normalized to pre-treatment, by group: group average n=2; for reduction in ANGPTL3 protein compared to pre-treatment: all measured time points
Protocol: ANGPTL3 RNAi agents were evaluated in cynomolgus monkeys. On day 1, cynomolgus macaque (Macaca fascicularis) primates (also referred to herein as “cynos”) were administered a single subcutaneous injection of 0.3 mL/kg (approximately 2-3 mL volume, depending on animal mass) containing 3.0 mg/kg of ANGPTL3 RNAi agent AD05308 or AD05418, formulated in saline.
Two (2) cynos in each group were tested (n=2). Blood samples were drawn and serum samples were analyzed on days −37 (pre-dose), −15 (pre-dose), and −1 (pre-dose), 8, 16, 23, 30, and 37. Cynos were fasted overnight prior to each collection. ANGPTL3 protein levels in serum were measured by ELISA assay (R&D Systems), according to the manufacturer's recommendations. The ANGPTL3 protein levels were normalized. For normalization, the level of ANGPTL3 protein for each animal at a time point, was divided by the average pre-treatment level of expression in that animal (in this case at days −37, −15, and −1) to determine the ratio of expression “normalized to pre-treatment.”

[7] = day 29, single 3 mg/kg subcutaneous, C57bl/6 mice
[8] = Day 8, 3.0 mg/kg single subcutaneous dose on day 1, female C57bl/6 mice
[9] = Day 13, 3.0 mg/kg single subcutaneous dose on day 1, female C57bl/6 mice
[10] = Day 22, 3.0 mg/kg single subcutaneous dose on day 1, female C57bl/6 mice
[11] = Day 29, 3.0 mg/kg single subcutaneous dose on day 1, female C57bl/6 mice
[12] = Day 36, 3.0 mg/kg single subcutaneous dose on day 1, female C57bl/6 mice
[13] = single 3.0 mg/kg subcutaneous, cynomolgus monkeys
[14] = Day 16, single 3.0 mg/kg subcutaneous, cynomolgus monkeys, 3 mg/kg
[15] = day 37, single 3.0 mg/kg subcutaneous, cynomolgus monkeys

Substance	Avg ANGPTL3 protein normalized to pre-treatment, individual animal (ANGPTL3 protein [6]; Day 8, Cyno A)	Avg ANGPTL3 protein normalized to pre-treatment, individual animal (ANGPTL3 protein [6]; Day 8, Cyno B)	Avg ANGPTL3 protein normalized to pre-treatment, by group (ANGPTL3 protein [6]; Day 8)	Avg ANGPTL3 protein normalized to pre-treatment, individual animal (ANGPTL3 protein [6]; Day 16, Cyno A)	Avg ANGPTL3 protein normalized to pre-treatment, individual animal (ANGPTL3 protein [6]; Day 16, Cyno B)	Avg ANGPTL3 protein normalized to pre-treatment, by group (ANGPTL3 protein [6]; Day 16)	Avg ANGPTL3 protein normalized to pre-treatment, individual animal (ANGPTL3 protein [6]; Day 23, Cyno A)	Avg ANGPTL3 protein normalized to pre-treatment, individual animal (ANGPTL3 protein [6]; Day 23, Cyno B)	Avg ANGPTL3 protein normalized to pre-treatment, by group (ANGPTL3 protein [6]; Day 23)	Avg ANGPTL3 protein normalized to pre-treatment, individual animal (ANGPTL3 protein [6]; Day 30, Cyno A)	Avg ANGPTL3 protein normalized to pre-treatment, individual animal (ANGPTL3 protein [6]; Day 30, Cyno B)	Avg ANGPTL3 protein normalized to pre-treatment, by group (ANGPTL3 protein [6]; Day 30)	Avg ANGPTL3 protein normalized to pre-treatment, individual animal (ANGPTL3 protein [6]; Day 37, Cyno A)	Avg ANGPTL3 protein normalized to pre-treatment, individual animal (ANGPTL3 protein [6]; Day 37, Cyno B)	Avg ANGPTL3 protein normalized to pre-treatment, by group (ANGPTL3 protein [6]; Day 37)	reduction in ANGPTL3 protein compared to pre-treatment (ANGPTL3 protein [6]; [13])	also measured
AD05488: RNAi agent duplex: antisense AM07235-AS, sense AM07234-SS (antisense mU*fA*mC*fUmGfAmUfCmAfAmAfUmAfUmGfUmUfGmAfG*mC; sense {NAG37}*[invAb]*mGmCmUmCmAmAmCmAfUfAfUmUmUmGmAmUmCmAmGmUmA*[invAb])	–	–	–	–	–	–	–	–	–	–	–	–	–	–	–	–	Avg Total Chol normalized to pre-treatment (ANGPTL3 gene [1]; Day 8): 0.840; Avg Total Chol normalized to pre-treatment (ANGPTL3 gene [1]; Day 15): 0.779; Avg Total Chol normalized to pre-treatment (ANGPTL3 gene [1]; Day 22): 0.743; Avg Total Chol normalized to pre-treatment (ANGPTL3 gene [1]; Day 29): 0.674; Avg Total Chol normalized to pre-treatment (ANGPTL3 gene [1]; Day 36): 0.722; Average LDL Normalized to Pre-Treatment (ANGPTL3 gene [2]; Day 8): 0.934; Average LDL Normalized to Pre-Treatment (ANGPTL3 gene [2]; Day 15): 0.926; Average LDL Normalized to Pre-Treatment (ANGPTL3 gene [2]; Day 22): 0.891; Average LDL Normalized to Pre-Treatment (ANGPTL3 gene [2]; Day 29): 0.872; Average LDL Normalized to Pre-Treatment (ANGPTL3 gene [2]; Day 36): 0.805
AD05308: RNAi agent duplex: antisense AM07003-AS, sense AM07002-SS (chain 1 mU*fG*mU*fUmGfAmAfUmUfAmAfUmGfUmCfCmAfUmGfG*mA; chain 2 {NAG37}*[invAb]*mUmCmCmAmUmGmGmAfCfAfUmUmAmAmUmUmCmAmAmCmA*[invAb])	0.545	0.287	0.416	0.423	0.471	0.447	0.832	0.465	0.649	0.722	0.572	0.647	0.709	0.421	0.565	reduction	Avg ANGPTL3 (Average ANGPTL3 Protein Normalized to Pre-Treatment and Control) (ANGPTL3 protein [3]; Day 8): 0.106; Avg ANGPTL3 (Average ANGPTL3 Protein Normalized to Pre-Treatment and Control) (ANGPTL3 protein [3]; Day 13): 0.076; Avg ANGPTL3 (Average ANGPTL3 Protein Normalized to Pre-Treatment and Control) (ANGPTL3 protein [3]; Day 22): 0.084; Avg ANGPTL3 (Average ANGPTL3 Protein Normalized to Pre-Treatment and Control) (ANGPTL3 protein [3]; Day 29): 0.088; Avg ANGPTL3 (Average ANGPTL3 Protein Normalized to Pre-Treatment and Control) (ANGPTL3 protein [3]; Day 36): 0.167; ANGPTL3 protein normalized to pre-treatment and control (ANGPTL3 protein [3]; [7]): 0.088; reduction in ANGPTL3 protein compared to control (ANGPTL3 protein [3]; [7]): approximately 91%; Avg TG (Average Triglycerides Normalized to Pre-Treatment and Control) (ANGPTL3 gene [4]; [8]): 0.375; Avg TG (Average Triglycerides Normalized to Pre-Treatment and Control) (ANGPTL3 gene [4]; [9]): 0.554; Avg TG (Average Triglycerides Normalized to Pre-Treatment and Control) (ANGPTL3 gene [4]; [10]): 0.399; Avg TG (Average Triglycerides Normalized to Pre-Treatment and Control) (ANGPTL3 gene [4]; [11]): 0.473; Avg TG (Average Triglycerides Normalized to Pre-Treatment and Control) (ANGPTL3 gene [4]; [12]): 0.430; Avg HDL (Average HDL Normalized to Pre-Treatment and Control) (ANGPTL3 gene [5]; [8]): 0.634; Avg HDL (Average HDL Normalized to Pre-Treatment and Control) (ANGPTL3 gene [5]; [9]): 0.583; Avg HDL (Average HDL Normalized to Pre-Treatment and Control) (ANGPTL3 gene [5]; [10]): 0.572; Avg HDL (Average HDL Normalized to Pre-Treatment and Control) (ANGPTL3 gene [5]; [11]): 0.606; Avg HDL (Average HDL Normalized to Pre-Treatment and Control) (ANGPTL3 gene [5]; [12]): 0.854
AD05418: RNAi agent duplex: antisense AM07159-AS, sense AM07158-SS (antisense mU*fU*mU*fGmAfAmUfUmAfAmUfGmUfCmCfAmUfGmGfG*mU; sense {NAG37}*[invAb]*mAmCmCmCmAmUmGmGfAfCfAmUmUmAmAmUmUmCmAmAmA*[invAb])	0.585	0.503	0.544	0.358	0.309	0.334	0.260	0.340	0.300	0.311	0.467	0.389	0.212	0.328	0.270	reduction	normalized ANGPTL3 protein level, individual animals (ANGPTL3 protein [6]; [14]): 0.358 and 0.309; reduction in ANGPTL3 protein, individual animals (ANGPTL3 protein [6]; [14]): approximately 64% and ~69%; average ANGPTL3 protein normalized to pre-treatment (ANGPTL3 protein [6]; [15]): 0.270; average reduction in ANGPTL protein levels (ANGPTL3 protein [6]; [15]): approximately 73%
